According to patent US8466147B2, “Use of reversine and analogs for treatment of cancer” (Dana-Farber Cancer Institute, Inc., priority 2006, dated 2013):

Key:
MM cells [1] = experiment: Anti-MM activity of reversine analog; format: cell-based; conditions: FIG. 14
Procedure: MTT cell survival assay. Viability of cells treated with reversine, alone or combined with other agents, was assessed by measuring 3-(4,5-dimethylthiazol-2-yl)-2,5-diphenyl tetrasodium bromide (MTT, Chemicon International, Temecula, Calif.) dye absorbance. Cells were pulsed with 1:10 the culture volume of 5 mg/ml MTT to each well for the last 4 hrs of 72 hr cultures, followed by 1.5-3 fold the culture volume of isopropanol containing 0.04N HCl. Absorbance was measured at 570/630 nm using a spectrophotometer (Molecular Devices Corp., Sunnyvale Calif.). Recombinant human IL-6 and IGF (R&D Systems; Minneapolis, Minn.) was used at 10 ng/mL and 50 ng/mL respectively, as indicated. For testing normal PBMCs, healthy donor blood was collected using heparinized tubes, separated by Ficoll (Amersham Biosciences; Sweden) gradient separation and plated at 150,000 cells per well and pre-stimulated, as indicated, with 5 ng/mL PHA (Sigma) for 24 hrs.

[2] = test system: tumor cell lines, including myeloma, leukemia, lymphoma and thyroid
Source text: Cell lines. ARD, ARH-77, ARK, ARO, ARP-1, BHT101, BHP-10-3, BHP-14-9, BHP-17-10, BHP-18-17, BHP-19-24, BHP2-7, BHP-5, BHP-7, DHL-4, DHL-6, DHL-7, DHL-8, DHL-10, Dox6, EJM, FRO, IM9, INA-6, JJN3, KAT-4, KAT-4B, KAT4C, KAT18, KMS-1, KMS-11, KMS-12BM, KMS-18, KMS-20, KMS-26, KMS-28-BM, KMS-28-PE, KMS-34, KMS-5, L363, LPCL-HO, LRS, MM-AS, MEG-01, MM144, MM-1R, MM-1S, MM1S-Akt, MMSV, Namalwa, NCI-H929, NOP2, NPA, OCI MY1, OCI-MY5, OCI-My7, OPM-1, OPM-2, OPM-6, RPMI8226, S6B45, SKMM2, SW579, SW1736, THLE-3, TK PCL, TT, U266, WM-WSU, WRO, XG1, and ZR-75-1 were grown in either Dulbecco's modified Eagle's medium (DMEM) (BioWhittaker, Walkersville, Md.) or Roswell Park Memorial Institute medium (RPMI) (BioWhittaker) with 100 U/ml penicillin, 100 μg/ml streptomycin and 10% fetal calf serum (FCS) (GIBCO/BRL, Gaithersburg, Md.), unless stated otherwise.
(§1) MTT cell survival assay. Viability of cells treated with reversine, alone or combined with other agents, was assessed by measuring 3-(4,5-dimethylthiazol-2-yl)-2,5-diphenyl […] bromide (MTT, Chemicon International, Temecula, Calif.) dye absorbance. Cells were pulsed with 1:10 the culture volume of 5 mg/ml MTT to each well for the last 4 hrs of 72 hr cultures, followed by 1.5-3 fold the culture volume of isopropanol containing 0.04N HCl. Absorbance was measured at 570/630 nm using a spectrophotometer (Molecular Devices Corp., Sunnyvale Calif.). Recombinant human IL-6 and IGF (R&D Systems; Minneapolis, Minn.) was used at 10 ng/mL and 50 ng/mL respectively, as indicated. For testing normal PBMCs, healthy donor blood was collected using heparinized tubes, separated by Ficoll (Amersham Biosciences; Sweden) gradient separation and plated at 150,000 cells per well and pre-stimulated, as indicated, with 5 ng/mL PHA (Sigma) for 24 hrs.

various kinases = conditions: 500 nM
Procedure: In vitro activity against kinases. Kinase activity was screened using 500 nM of reversine (in 1% DMSO) and ATP using the Invitrogen Z′-LYTE™ kinase assay platform (Invitrogen). In summary, in first reaction the kinase transfers the gamma-phosphate of ATP to a single tyrosine, serine or threonine residue in a synthetic FRET-peptide. In the secondary reaction, a site-specific protease recognizes and cleaves non-phosphorylated FRET-peptides. To calculate kinase activity, the ratio of donor emission to acceptor emission after excitation of the fluorophore at 400 nm was compared.

MR20 myeloma cells = conditions: 72 hours
Procedure: Treatment of reversine in the Side Populations of MR20 myeloma cells. MR20 cells were plated at a density of 1×10*5 cells/mL in RPMI media supplemented with Pen/Strep and 10% FBS. Reversine was added to the cells at a range of concentrations, the cells were then incubated for 72 hrs at 37 degrees C. Following the incubation period, the cells were collected and stained with Hoescht, and counter stained with 7-AAD. Reserpine, a inhibitor of the membrane transporter, was added to a sample of control cells to identify the “side population” cells (control). The samples were then analyzed on a BD FACS Aria with a UV laser to excite the Hoescht stain. The samples were first gated on the cellular fraction (by forward and side scatter), then on the viable cells (7-AAD negative), then on the Hoescht-Blue negative Hoescht-Red negative fraction representing the Side Population.

chicken B-cell line DT40 = conditions: FIG. 13
MM.1S cells = conditions: 1 microM reversine, 2-48 hr
Procedure: Immunoblotting analysis. Immunoblotting was performed by scrapping cells (1×10^6), centrifuged briefly and lysed for 30 min on ice in 50 mM Tris-HCl, pH 8.0, containing 120 mM NaCl and 1% Igepal, supplemented with the Complete-TM mixture of proteinase inhibitors. The samples were cleared by centrifugation (14,000 rpm, 30 min, 4° C.) and assessed for protein concentration. SDS-polyacrylamide gel electrophoresis (12%) was performed (30-50 μg of protein per lane) and the proteins were electroblotted onto PVDF membranes. After 1 hour incubation in blocking solution (5% milk in TBST), the membranes were exposed to primary antibody overnight at 4° C. Following washing in TBST, the respective secondary HRP-labeled antibody was added at 1:20,000 dilution for 1 hr at room temperature. The membrane was then washed with TBST for 45-60 min with multiple changes of the wash buffer. Following washing, the protein expression was visualized using the ECL technique. The primary antibodies used for immunoblotting were purchased from Santa Cruz Biotechnology (Santa Cruz, Calif.), Upstate Biotechnologies (Lake Placid, N.Y.) or Cell Signaling (Beverly, Mass.). Secondary antibodies were purchased from (Jackson ImmunoResearch West Grove, Pa.).

MM cell lines = conditions: reversine 1 μM, washout, then drug-free medium
Procedure: Cell death commitment assay. The minimum time length of exposure to reversine that is required to commit MM cells to apoptosis was evaluated by incubating cells in 24-well plates with reversine (1 μM) for 1, 2, 4, 8, 16 or 24 hours. At the end of this incubation, the cells were washed 3 times and incubated in drug-free medium for an additional 3 days, resulting in equal length of total incubation for all experimental conditions ([…]), at which point cell survival was quantified by MTT, as above, and expressed as percentage of the value obtained from respective controls.

[3] = test system: MM cells (MM.1S, OPM-1 human tumor cells); conditions: 1 microM reversine
Source text: Cell cycle analysis. Cell lines, treated with reversine for 0, 2, 4, 8,16, 24, and 48 hrs were stained using a solution of propidium iodide (Sigma) and RNase A following 70% EtOH fixation.

OPM2 cells = conditions: oral gavage, 1 mg/kg twice weekly
Source text: Anti-myeloma activity in animals. […] Briefly, male (6 to 8-week old) SCID/Beige mice, housed and monitored in the Animal Research Facility of the Dana-Farber Cancer Institute, were irradiated (300 rads) using Cs^137 gamma-irradiator source, and received (24 hrs post-irradiation) tail i.v. injections of 10^6 OPM2 cells suspended in total volume of 200 microL of phosphate buffered saline (PBS) per mouse. Mice were monitored for changes in body weight and signs of infection or paralysis. In accordance with institutional guidelines, mice were sacrificed by CO2 inhalation in the event of paralysis or major compromise in their quality of life. All experimental procedures and protocols had been approved by the Animal Care and Use Committee of the Dana-Farber Cancer Institute. Overall survival (defined as time between i.v. injection of tumor cells and sacrifice or death) was compared in control vs. 1 mg/mg reversine-treated (P.O. twice weekly) mice by Kaplan-Meier method.

[4] = test system: primary myeloma tumor specimens from heavily pre-treated patients
Procedure: as §1

MM cells [5] = conditions: combined with dexamethasone (5 nM)
Procedure: as §1

hepatocytes = conditions: 1 microM, in vitro
Procedure: as §1

stromal cells = conditions: 1 microM, in vitro
Procedure: as §1

[6] = test system: peripheral blood mononuclear cells (PBMCs)
Procedure: as §1

MM.1S tumor cell line = test system: MM.1S tumor cell line
Procedure: as §1

[7] = test system: GFP-luc expressing MM.1S cells; conditions: 72 hrs, luciferase readout
Procedure: (§2) Activity against myeloma cells in co-culture with bone marrow stromal cells. Co-culture Stromal cells were plated at a density of 10,000 cells per well in optical 96-well plates and were incubated for 24 hrs to allow for attachment. Tumor cell lines stably expressing luciferase were plated at 1500 cells per well. Cells were treated immediately following plating and incubated for 72 hrs. Luciferin substrate was added to cultures, mixed, and incubated at room temperature. Samples were read using a Luminoskan luminometer (Labsystems, Ramsey, Minn.).

[8] = test system: GFP-luc expressing MM.1R cells; conditions: 72 hrs, luciferase readout
Procedure: as §2

various phosphatases = conditions: 500 nM
Procedure: In vitro activity against phosphatases. In vitro phosphatase activity was screened at 500 nM reversine using the DiFMUP technology (Molecular Probes). Briefly, 6,8-difluoro-4-methylumbelliferyl phosphate substrate is combined with ATP and drug. The removal of the phosphate group on 6,8-difluoro-4-methylumbelliferyl yields a more fluorescent version of the substrate than the non-hydrolyzed form. The amount of fluorescent signal directly corresponds to the level of phosphatase activity.

Structure (SMILES): c1nc2nc(NC3CCCCC3)nc(Nc3ccc(N4CCOCC4)cc3)c2[nH]1 [retreversine]
- anti-MM activity in comparison with reversine (MM cells [1]): reduced activity

Structure (SMILES): c1nc2nc(Nc3ccc(N4CCOCC4)cc3)nc(NC3CCCCC3)c2[nH]1 [reversine, 2-(4-morpholinoanilino)-6-cyclohexylaminopurine]
- concentration with significant anti-tumor activity ([2]; in many cases): ≤ 1 µM
- anti-tumor effects in tumor cell lines ([2]; myeloma, leukemia, lymphoma and thyroid lines, FIG. 1): anti-tumor effects in a broad range of tumor cell lines
- anti-tumor effect, potency in words ([2]; subset of MM cell lines): sub-micro molar anti-tumor effect
- survival rate ([2]; wide variety of tumor cell lines, reversine between 1 and 10 μM, 72 hour exposure): 0%
- inhibition of kinase activity (various kinases): inhibition of kinase activity was observed
- sensitivity of side population (SP) cells versus main population (MR20 myeloma cells): more sensitive than the main population
- percentage of SP cells (MR20 myeloma cells; increasing concentrations): decreased with increasing doses
- sensitivity of syk-expressing versus syk-/- DT40 cells (chicken B-cell line DT40): more sensitive
- B-raf and Akt levels (MM.1S cells): inhibition of B-raf and Akt levels
- apoptosis markers (caspase 3, PARP) (MM.1S cells): cleavge of caspase 3 and PARP
- effect on chaperone proteins Hsp70 and Hsp90 (MM.1S cells): minimal affects
- phospho-specific proteins (phospho-Akt, phospho-MEK, phospho-MAPK, phospho-IKB, phospho-p70S6K) (MM.1S cells; no increase in total protein levels): increased levels
- treatment time that commits cells to death (MM cell lines): less than 24 hrs
- exposure time after which the sub-G0 fraction increases [3]: more than 16 hr
- time of G2 arrest after initial exposure [3]: 8 to 16 h
- survival compared to control mice (OPM2 cells): Survival was extended
- dose with anti-MM activity [4]: ≤ 1 µM
- anti-MM activity of combination (MM cells [5]): greater than additive
- toxicity to hepatocytes (hepatocytes): minimal toxicity
- toxicity to stromal cells (stromal cells): minimal toxicity
- toxicity to PBMCs stimulated with phytohaemagglutinin ([6]; PHA-stimulated, in vitro): limited toxicity
- toxicity to PBMCs ([6]; unstimulated, doses as high as 10 microM): does not cause major toxicity
- difference in normalized effect with versus without cytokines (MM.1S tumor cell line; 10 μM reversine): virtually no difference
- tumor cell viability (MM.1S tumor cell line; presence or absence of cytokines (IL-6, IGF)): dose dependent decrease in tumor cell viability
- sensitivity in co-culture with bone marrow stromal cells [7]: increased
- sensitivity in co-culture with bone marrow stromal cells [8]: increased
- inhibition of phosphatase activity (various phosphatases): inhibition of phosphatase activity was not seen
